Measured values as given in PMC7550323 (Clinical Pharmacokinetics, 2020).
Where two headings read alike, the source gives them in different places.

Details: for AUC / Cmax / Tmax / half-life: human, plasma, oral; for AUC / Cmax / Tmax: single dose (Day-2)
[1] = multiple dosing QD (Day 15), 20 mg, n = 3
[2] = multiple dosing QD (Day 15), 40 mg, n = 2
[3] = multiple dosing QD (Day 15), 40 mg, n = 12
[4] = multiple dosing QD (Day 15), 80 mg, n = 3
[5] = multiple dosing QD (Day 15), 80 mg, n = 20
[6] = multiple dosing QD (Day 15), 120 mg, n = 3
[7] = multiple dosing QD (Day 15), 120 mg, n = 61
[8] = multiple dosing QD (Day 15), 200 mg, n = 2
[9] = multiple dosing QD (Day 15), 200 mg, n = 79
[10] = multiple dosing QD (Day 15), 300 mg, n = 3
[11] = multiple dosing QD (Day 15), 300 mg, n = 15

With CCc1nc(C(N)=O)c(Nc2ccc(N3CCC(N4CCN(C)CC4)CC3)c(OC)c2)nc1NC1CCOCC1 [gilteritinib, Gilteritinib] as the molecule, how does the AUC (40 mg, AUC24, Median (range), n = 3) read?
Its AUC is 315 ng·h/mL.

What about the Cmax (40 mg, Mean (SD), n = 3) of the same molecule?
Its Cmax is 25 ng/mL.

What about the Cmax (40 mg, Median (range), n = 3) of the same molecule?
Its Cmax is 17 ng/mL.

What about the Tmax (40 mg, Median (range), n = 3) of the same molecule?
Its Tmax is 5.98 h.

What about the half-life (40 mg, t½, Mean (SD), multiple dosing QD (Day 15), 40 mg, n = 2, calculated from Rac) of the same molecule?
Its half-life is 152 h.

What about the half-life (40 mg, t½, Median (range), multiple dosing QD (Day 15), 40 mg, n = 2, calculated from Rac) of the same molecule?
The half-life was 152 h.

What about the AUC (80 mg, AUC24, Mean (SD), n = 3) of the same molecule?
Its AUC is 1220 ng·h/mL.

What about the AUC (80 mg, AUC24, Median (range), n = 3) of the same molecule?
Its AUC is 995 ng·h/mL.

And the Cmax (80 mg, Mean (SD), n = 3)?
The Cmax was 75.3 ng/mL.

What about the Cmax (80 mg, Median (range), n = 3) of the same molecule?
Its Cmax is 71.5 ng/mL.

What about the Tmax (80 mg, Median (range), n = 3) of the same molecule?
Its Tmax is 4 h.

And the half-life (80 mg, t½, Mean (SD), multiple dosing QD (Day 15), 80 mg, n = 3, calculated from Rac)?
The half-life was 86.1 h.

What about the half-life (80 mg, t½, Median (range), multiple dosing QD (Day 15), 80 mg, n = 3, calculated from Rac) of the same molecule?
Its half-life is 91 h.

And the AUC (120 mg, AUC24, Mean (SD), n = 3)?
The AUC was 2480 ng·h/mL.

And the AUC (120 mg, AUC24, Median (range), n = 3)?
The AUC was 1390 ng·h/mL.

And the Cmax (120 mg, Mean (SD), n = 3)?
The Cmax was 137 ng/mL.

What about the Cmax (120 mg, Median (range), n = 3) of the same molecule?
The Cmax was 85.7 ng/mL.

And the Tmax (120 mg, Median (range), n = 3)?
The Tmax was 2.1 h.

What about the half-life (120 mg, t½, Mean (SD), multiple dosing QD (Day 15), 120 mg, n = 3, calculated from Rac) of the same molecule?
Its half-life is 45.9 h.

And the half-life (120 mg, t½, Median (range), multiple dosing QD (Day 15), 120 mg, n = 3, calculated from Rac)?
Its half-life is 44.9 h.

What about the AUC (200 mg, AUC24, Mean (SD), n = 3) of the same molecule?
The AUC was 3020 ng·h/mL.

What about the AUC (200 mg, AUC24, Median (range), n = 3) of the same molecule?
Its AUC is 2540 ng·h/mL.

And the Cmax (200 mg, Mean (SD), n = 3)?
Its Cmax is 168 ng/mL.

What about the Cmax (200 mg, Median (range), n = 3) of the same molecule?
Its Cmax is 149 ng/mL.

And the Tmax (200 mg, Median (range), n = 3)?
The Tmax was 5.2 h.

What about the half-life (200 mg, t½, Mean (SD), multiple dosing QD (Day 15), 200 mg, n = 2, calculated from Rac) of the same molecule?
The half-life was 142 h.

And the half-life (200 mg, t½, Median (range), multiple dosing QD (Day 15), 200 mg, n = 2, calculated from Rac)?
Its half-life is 142 h.

What about the AUC (300 mg, AUC24, Mean (SD), n = 3) of the same molecule?
Its AUC is 4160 ng·h/mL.

And the AUC (300 mg, AUC24, Median (range), n = 3)?
Its AUC is 2450 ng·h/mL.

What about the Cmax (300 mg, Mean (SD), n = 3) of the same molecule?
The Cmax was 204 ng/mL.

What about the Cmax (300 mg, Median (range), n = 3) of the same molecule?
Its Cmax is 137 ng/mL.

And the Tmax (300 mg, Median (range), n = 3)?
The Tmax was 6.1 h.

And the half-life (300 mg, t½, Mean (SD), multiple dosing QD (Day 15), 300 mg, n = 3, calculated from Rac)?
The half-life was 142 h.

And the half-life (300 mg, t½, Median (range), multiple dosing QD (Day 15), 300 mg, n = 3, calculated from Rac)?
The half-life was 159 h.

And the AUC (450 mg, AUC24, Mean (SD), n = 2)?
The AUC was 3320 ng·h/mL.

What about the AUC (450 mg, AUC24, Median (range), n = 2) of the same molecule?
Its AUC is 3320 ng·h/mL.

What about the Cmax (450 mg, Mean (SD), n = 3) of the same molecule?
The Cmax was 208 ng/mL.

And the Cmax (450 mg, Median (range), n = 3)?
Its Cmax is 216 ng/mL.

And the Tmax (450 mg, Median (range), n = 3)?
The Tmax was 5.8 h.

What about the half-life (estimated t1/2, across dose cohorts, multiple dosing) of the same molecule?
The half-life was 45 to 159 h.

And the “accumulation based on the accumulation index” value (multiple dosing QD)?
Its value is “up to ten-fold accumulation”.

And the “Rac (accumulation ratio), Mean (SD)” value [1]?
Its value is 4.3 (1.069).

And the “Rac (accumulation ratio), Median (range)” value [1]?
The value was 3.8 (3.5–5.5).

What about the “Ctrough, Mean (SD)” value (multiple dosing QD (Day 15), 20 mg, n = 11) of the same molecule?
The value was 43.5 (23.5) ng/mL.

And the “Rac (accumulation ratio), Mean (SD)” value [2]?
Its value is 9.6 (7.8).

And the “Rac (accumulation ratio), Median (range)” value [2]?
The value was 9.6 (4.2–15.1).

And the “Ctrough, Mean (SD)” value [3]?
The value was 72.9 (40.1) ng/mL.

And the “Ctrough, Median (range)” value [3]?
The value was 66.6 (26.7–166) ng/mL.

And the “Rac (accumulation ratio), Mean (SD)” value [4]?
The value was 5.7 (1.4).

What about the “Rac (accumulation ratio), Median (range)” value [4] of the same molecule?
Its value is 6.0 (4.1–6.97).

What about the “Ctrough, Mean (SD)” value [5] of the same molecule?
Its value is 165 (88.0) ng/mL.

And the “Ctrough, Median (range)” value [5]?
The value was 110 (78.6–339) ng/mL.

And the “Rac (accumulation ratio), Mean (SD)” value [6]?
The value was 3.3 (1.2).

What about the “Rac (accumulation ratio), Median (range)” value [6] of the same molecule?
Its value is 3.2 (2.2–4.4).

And the “Ctrough, Mean (SD)” value [7]?
The value was 367 (253) ng/mL.

What about the “Ctrough, Median (range)” value [7] of the same molecule?
Its value is 292 (77.1–1173) ng/mL.

What about the “Rac (accumulation ratio), Mean (SD)” value [8] of the same molecule?
The value was 9.0 (3.7).

And the “Rac (accumulation ratio), Median (range)” value [8]?
The value was 9.0 (6.4–11.7).

What about the “Ctrough, Mean (SD)” value [9] of the same molecule?
The value was 816 (557) ng/mL.

What about the “Ctrough, Median (range)” value [9] of the same molecule?
Its value is 668 (90.5–2925) ng/mL.

And the “Rac (accumulation ratio), Mean (SD)” value [10]?
Its value is 9.1 (3.3).

What about the “Rac (accumulation ratio), Median (range)” value [10] of the same molecule?
Its value is 10.1 (5.4–11.7).

And the “Ctrough, Mean (SD)” value [11]?
Its value is 1242 (723) ng/mL.

What about the “Ctrough, Median (range)” value [11] of the same molecule?
The value was 1085 (470–2391) ng/mL.

What about the “Ctrough, Mean (SD)” value (multiple dosing QD (Day 15), 450 mg, n = 1) of the same molecule?
The value was 1170 ng/mL.
